Assay results as given in article PMC3532304, “Piperidinols That Show Anti-Tubercular Activity as Inhibitors of Arylamine N-Acetyltransferase: An Essential Enzyme for Mycobacterial Survival Inside Macrophages” (PLoS ONE, 2012).
In brackets after ≈: the same amount, converted by molar mass. Several values for one entry are separate records, joined by “and”; a condition that tells them apart may be missing. Equal entries are not always repeated. Where two headings read alike, the source gives them in different places.

What was measured:
[1] = molecular target: T1, MMNAT (Mycobacterium marinum, UniProt B2HIZ6); experiment: ESI-MS analysis of covalent enzyme-inhibitor adducts; assay type: binding, M. marinum; conditions: enzyme-to-inhibitor ratio 1∶1
T1 sequence (B2HIZ6 entry or part of it): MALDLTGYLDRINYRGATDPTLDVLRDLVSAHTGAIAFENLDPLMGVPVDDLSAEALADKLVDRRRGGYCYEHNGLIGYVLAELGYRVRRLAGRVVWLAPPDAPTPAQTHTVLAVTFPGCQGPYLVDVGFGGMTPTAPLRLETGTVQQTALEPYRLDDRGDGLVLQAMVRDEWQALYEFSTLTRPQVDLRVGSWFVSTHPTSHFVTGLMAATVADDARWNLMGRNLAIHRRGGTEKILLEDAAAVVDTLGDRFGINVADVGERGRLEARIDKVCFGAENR
Method: ESI-MS was performed as described previously. A sample of 2.5 mg/mL (80 µM) MMNAT was analyzed on a Micromass LCT mass spectrometer. The samples were pretreated with DMSO or 0.08–1.2 mM inhibitor dissolved in DMSO to a final percentage of 5% (v/v) DMSO and incubated for 30–60 min before analysis. ESI-MS analysis was performed in positive ion mode after denaturation in 50% v/v acetonitrile in water with an accuracy of ±0.1%. The sample was run over a desalting column prior to MS analysis.

[2] = test system: M. tuberculosis; parameters: method as in PMID 13402115; conditions: cited from earlier work
[3] = test system: M. bovis BCG; experiment: microbe, parasite or virus in culture; assay type: cell-based; conditions: Mycobacterium tuberculosis variant bovis BCG, BCG, 336 h, read-out: MIC M. bovis BCG
[4] = test system: M. tuberculosis H37Rv; experiment: Mycobacterial growth inhibition in vitro (spot culture on solid medium); assay type: cell-based; conditions: Mycobacterium tuberculosis, H37RV, 336 h, read-out: MIC M. tuberculosis
[5] = molecular target: T1, MMNAT; experiment: NAT-inhibition assay (Ac-CoA hydrolysis with hydralazine, Ellman's reagent); assay type: biochemical, M. marinum; conditions: 150 µM HLZ, 120 µM Ac-CoA, 24°C
Method: An assay for measuring the formation of CoA was used to determine the activity of the enzyme in the presence of potential inhibitors. All the tested compounds were dissolved in dimethylsulphoxide (DMSO) and all reactions were carried out in the presence of 5% (v/v) DMSO. The enzyme (100–150 ng) was mixed with the inhibitors 1–5 (5 µL at a final concentration of 0–250 µM) and incubated for 15 min at 24°C prior to starting the reaction by adding 15 µL hydralazine and 12 µL Ac-CoA at final concentrations of 150 µM and 120 µM respectively, in a final total volume of 100 µL of 20 mM Tris-HCl pH 8. The assay was performed as an end-point read out measurement by stopping the reaction after 10 min at 24°C using 25 µL Ellman's reagent (5 mM 5,5′-dithiobis-(2-nitrobenzoate) solution in 6.4 M guanidine-HCl and 100 mM Tris-HCl, pH 7.3). The absorbance was measured at a wavelength of 405 nm within 2 min (Tecan Sunrise Plate Reader). The assays were repeated using a 10-fold enzyme concentration to exclude promiscuous non-specific inhibitors. The activity of the enzyme in the presence of 5% (v/v) DMSO was measured as a control. Inhibition values were determined as the ratio of the enzyme activity (expressed as the rate of CoA formation per microgram protein (µM/min.µg)) with the requisite compound, to the activity of the control without inhibitor. IC50 values were determined from the inhibition curves which were obtained by non-linear fitting of the % inhibition and the inhibitor concentration (µM) using the Log(inhibitor) vs. response module of GraphPad Prism 5.0.

[6] = molecular target: T2, hamster NAT2 (shNAT2) (Mesocricetus auratus, UniProt P50293); experiment: Specificity panel of recombinant NAT enzymes (Ac-CoA hydrolysis with 5ASA); assay type: biochemical; conditions: 30 µM
T2 construct: made in house
T2 sequence (P50293 1-290): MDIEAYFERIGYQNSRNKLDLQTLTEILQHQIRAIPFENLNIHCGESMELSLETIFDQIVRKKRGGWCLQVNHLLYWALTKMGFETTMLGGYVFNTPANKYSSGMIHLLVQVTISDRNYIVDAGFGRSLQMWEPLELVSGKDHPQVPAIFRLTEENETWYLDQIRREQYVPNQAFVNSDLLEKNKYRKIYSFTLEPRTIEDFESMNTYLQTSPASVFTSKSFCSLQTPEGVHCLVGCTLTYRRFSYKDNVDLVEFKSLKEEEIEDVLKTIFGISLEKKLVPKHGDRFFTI
Method: (§1) Figure 2 Specificity of compound 1 for prokaryotic NAT enzymes. Compound 1 was tested at 30 µM against pure recombinant NAT enzymes from M. smegmatis (MSNAT), P. aeruginosa (PANAT), S. typhimurium (STNAT), MMNAT and TBNAT, and also against two eukaryotic enzymes, hamster NAT2 (shNAT2) and human NAT1. The results are shown as the mean ± S.D. of triplicate determinations of the percentage inhibition of hydrolysis of Ac-CoA in the presence of 5-aminosalicylic acid (5ASA) and against TBNAT using hydralazine as a substrate. The inhibition is represented as a percentage compared to an uninhibited control from triplicate measurements. The structure of compound 1 is shown and the piperidinol nucleus is highlighted by the shaded area.

[7] = molecular target: T3, human NAT1 (Homo sapiens, UniProt P18440); experiment: as above; assay type: biochemical; conditions: 30 µM
T3 construct: made in house
T3 sequence (P18440 1-290): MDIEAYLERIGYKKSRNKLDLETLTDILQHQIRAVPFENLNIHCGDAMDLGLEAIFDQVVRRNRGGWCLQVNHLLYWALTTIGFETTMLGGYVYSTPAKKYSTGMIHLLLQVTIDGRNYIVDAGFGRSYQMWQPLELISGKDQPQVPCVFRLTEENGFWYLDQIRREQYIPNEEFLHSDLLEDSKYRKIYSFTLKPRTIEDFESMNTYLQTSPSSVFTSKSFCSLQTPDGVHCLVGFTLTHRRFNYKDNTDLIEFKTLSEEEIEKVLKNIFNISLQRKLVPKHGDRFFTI
Method: as §1

[8] = molecular target: T1, MMNAT; experiment: Reversibility of inhibition by dialysis; assay type: biochemical, M. marinum; conditions: 15-fold molar excess, 1 h at 24°C, dialysis 16 h at 4°C
Method: Figure 3 Reversibility of the inhibition of TBNAT and MMNAT by compound 1. Each enzyme (MMNAT, TBNAT, 0.07 mM, 50 µL) was preincubated either alone or with 15-fold molar excess 1 at 24°C for 1 h. Each sample was then dialysed against 1 L fresh assay buffer (20 mM Tris-HCl pH 8) at 4°C for 16 h. The enzyme activities of the samples were measured before dialysis and then measured after dialysis by measuring the rate of Ac-CoA hydrolysis in the presence of HLZ as described in Methods. The mean ± S.D. of three measurements of the activity is shown. Loss of enzyme activity upon dialysis is likely to be due to the oxidation of the active site sulfhydryl group, especially since dialysis was performed in the absence of dithiothreitol.
For the reversibility studies, excess inhibitor was […] by dialysis. Each enzyme (0.07 mM MMNAT or TBNAT in 20 mM Tris-HCl pH 8 and 5% (v/v) DMSO) was preincubated either alone or with 15-fold molar excess of compound 1 in a final volume of 50 µL at 24°C for 1 h. Each sample was then dialysed against 1 L fresh assay buffer (20 mM Tris-HCl pH 8) at 4°C for 16 h. The enzyme activities of the samples were measured before dialysis and then measured after dialysis by measuring the rate of Ac-CoA (120 µM) hydrolysis in the presence of 150 µM HLZ.

CN1CCC(O)(c2ccccc2)C(C(=O)c2ccccc2)C1 (centres unmarked) [compound 1, (4-hydroxy-1-methyl-4-phenylpiperidin-3-yl)(phenyl)methanone]
Δm of enzyme-inhibitor adduct (MMNAT) ([1]; 24°C, 30–60 min): 132 Da and 132.6 Da | Molar ratio (inhibitor/protein) (MMNAT) ([1]; proposed number of inhibition species bound per protein molecule): 1 | minimum inhibitory concentration (MIC) against M. tuberculosis ([2]; conversion of the µg/mL value): ~17 µM (≈ 5.02 µg/mL) | minimum inhibitory concentration (MIC) against M. tuberculosis ([2]; reported over 50 years ago): less than 5 µg/mL | MIC [3]: 21.3 to 42.3 µM (≈ 6.29 to 12.5 µg/mL) | MIC [4]: 3.4 to 16.9 µM (≈ 1 to 4.99 µg/mL) | inhibition at 50 µM ([5]; 50 µM inhibitor, mean ± S.D. of triplicate, read-out: MMNAT % Inhibition): 105 ± 1% | IC50 ([5]; mean ± S.D.): 1300 nM | inhibition of eukaryotic NAT (hamster NAT2) [6]: did not show significant inhibition | inhibition of eukaryotic NAT (human NAT1) [7]: did not show significant inhibition | restoration of enzyme activity by dialysis (MMNAT) [8]: completely ineffective in restoring the activity
